From patent publication US11007181B2, “Cyclopamine analogs” (Infinity Pharmaceuticals, Inc., priority 2006, dated 2021)
pEC50: −log10 of the molar value.

How the values were obtained:
Hedgehog pathway = assay: Inhibition of the Hedgehog pathway in cell culture: C3H10T1/2 osteoblast differentiation, alkaline phosphatase assay; type: cell-based, Mouse; conditions: approximate EC50 for inhibition, C3H10T1/2 cells, sonic Hedgehog 250 ng/ml, alkaline phosphatase activity normalized to total protein
Source text: Hedgehog pathway specific cancer cell killing effects may be ascertained using the following assay. C3H10T1/2 cells differentiate into osteoblasts when contacted with the sonic hedgehog peptide (Shh-N). Upon differentiation; these osteoblasts produce high levels of alkaline phosphatase (AP) which can be measured in an enzymatic assay (Nakamura et al., 1997 BBRC 237: 465). Compounds that block the differentiation of C3H10T1/2 into osteoblasts (a Shh dependent event) can therefore be identified by a reduction in AP production (van der Horst et al., 2003 Bone 33: 899). The assay details are described below. The results approximate (EC50 for inhibition) of the differentiation assay is shown below in Table 1.
Mouse embryonic mesoderm fibroblasts C3H10T1/2 cells (obtained from ATCC) were cultured in Basal MEM Media (Gibco/Invitrogen) supplemented with 10% heat inactivated FBS (Hyclone), 50 units/ml penicillin and 50 ug/ml streptomycin (Gibco/Invitrogen) at 37 C with 5% CO2 in air atmosphere.
C3H10T1/2 cells were plated in 96 wells with a density of 8×10^3 cells/well. Cells were grown to confluence (72 hrs). After sonic Hedgehog (250 ng/ml), and/or compound treatment, the cells were lysed in 110 μL, of lysis buffer (50 mM Tris pH 7.4, 0.1% TritonX100), plates were sonicated and lysates spun through 0.2 μm PVDF plates (Corning). 40 μL, of lysates was assayed for AP activity in alkaline buffer solution (Sigma) containing 1 mg/ml p-Nitrophenyl Phosphate. After incubating for 30 min at 37° C., the plates were read on an Envision plate reader at 405 nm. Total protein was quantified with a BCA protein assay kit from Pierce according to manufacturer's instructions. AP activity was normalized against total protein.

murine Gli-1 mRNA = assay: Pancreatic cancer model: q-RT-PCR of HH pathway genes in harvested tumors, murine Gli-1; type: in vivo; conditions: BXPC-3 tumors harvested 4 hours post last dose, 40 mg/kg/day, vs Vehicle group
Description: (§1) The activity of Compound 42 was tested in a human pancreatic model: BXPC-3 cells were implanted subcutaneously into the flanks of the right legs of mice. On day 42 post-tumor implant, the mice were randomized into two groups to receive either Vehicle (30% HPBCD) or Compound 42. Compound 42 was dosed at 40 mg/kg/day. […] At the end of the study, the tumors were harvested 4 hours post the last dose to evaluate an on target response by q-RT-PCR analysis of the HH pathway genes.

BXPC-3 cells = assay: Pancreatic cancer model: BXPC-3 subcutaneous tumors in mice, tumor volume; type: in vivo, human; conditions: 40 mg/kg/day, 25 daily doses, p=0.0309
Description: as §1

Oral multi-dose MTD = type: in vivo, mice
medulloblastoma = assay: Medulloblastoma model: Ptch1/Hic1 subcutaneous allografts, tumor growth and survival; type: in vivo, mouse; conditions: daily (QD) PO administration
Description: (§2) The activity of Compound 42 was also evaluated in a transgenic mouse model of medulloblastoma. Mice that are heterozygous for loss of function mutations in the tumor suppressors Patched1 (Ptch1) and Hypermethylated in Cancer (Hic1) develop spontaneous medulloblastoma. […] When passaged as subcutaneous allografts, these tumors grow aggressively and are Hedgehog pathway-dependent. This model was employed to evaluate the efficacy of orally administered Compound, and to correlate activity with drug exposure in plasma and tumors.
The approximate effective daily oral dose for 50% inhibition of tumor growth (ED50) is 4 mg/kg.

Gli-1 mRNA = assay: Medulloblastoma model: Ptch1/Hic1 subcutaneous allografts, Gli-1 mRNA expression; type: in vivo, mouse; conditions: single oral dose, subcutaneously implanted medulloblastoma tumors, 8 hours post dose
Description: as §2

LX22 cells = assay: Lung cancer model: LX22 primary SCLC xenograft in mice; type: in vivo, human
Source text: To test the activity of Compound 42 in a human SCLC tumor model, LX22 cells were implanted subcutaneously into the flank of the right leg. LX22 is primary xenograft model of SCLC derived from chemo-naive patients, which has been maintained by mouse to mouse passaging. This tumor responds to etoposide/carboplatin chemotherapy in way that closely resembles a clinical setting. LX22 regresses during chemotherapy treatment, goes through a period of remission, and then begins to recur. In the LX22 model, Compound single agent activity and its ability to modulate the chemoresistant recurrence was tested. On day 32 post tumor implant, mice were randomized into three dosing groups to receive Vehicle (30% HBPCD), Compound, or the chemotherapy combination of etoposide and carboplatin (E/P). […] Etoposide was administered i.v at 12 mg/kg on days 34, 35, 36, and 48, while Carboplatin was administered i.v. at 60 mg/kg on days 34, 41, and 48, post tumor implant. On day 50, the E/P treated mice were further randomized to receive either Vehicle (30% HPBCD) or Compound follow up treatment.

human Gli-1 = assay: Pancreatic cancer model: q-RT-PCR of HH pathway genes in harvested tumors, human Gli-1; type: in vivo; conditions: BXPC-3 tumors harvested 4 hours post last dose, 40 mg/kg/day
Description: as §1

CC1=C2C[C@H]3[C@@H](CC[C@@H]4CC(=O)CC[C@@]43C)[C@@H]2CC[C@@]2(C1)O[C@@H]1C[C@H](C)CN(C(C)C)[C@H]1[C@H]2C [Compound 10]
pEC50 (Hedgehog pathway): < 7.00

CC1=C2C[C@H]3[C@@H](CC[C@@H]4C[C@@H](OC(=O)CN)CC[C@@]43C)[C@@H]2CC[C@@]2(C1)O[C@@H]1C[C@H](C)CN[C@H]1[C@H]2C [Compound 40]
pEC50 (Hedgehog pathway; Mus musculus, C3H 10T1/2): > 7.70

CC1=C2C[C@H]3[C@@H](CC[C@@H]4C[C@H](NS(C)(=O)=O)CC[C@@]43C)[C@@H]2CC[C@@]2(C1)O[C@@H]1C[C@H](C)CN[C@H]1[C@H]2C [Compound 42]
murine Gli-1 mRNA levels (q-RT-PCR) (murine Gli-1 mRNA): robust down-regulation | reduction of tumor volume growth compared to vehicle control (BXPC-3 cells): 40% | oral multi-dose MTD (Oral multi-dose MTD): 40 mg/kg/day | tumor growth (medulloblastoma): dose dependent inhibition of tumor growth, with frank tumor regression seen at higher doses | HH pathway modulation measured by Gli-1 mRNA expression (Gli-1 mRNA): dose-dependent down-regulation of the HH pathway | single agent activity, treated vs vehicle groups (LX22 cells; 40 mg/kg/day, 16 consecutive doses): no measurable difference between the treated and vehicle groups | tumor recurrence after etoposide/carboplatin (E/P) chemotherapy (LX22 cells; follow up treatment from day 50, 40 mg/kg/day oral, 35 consecutive doses, vs vehicle, p=0.0101): substantial delay in tumor recurrence | human Gli-1 modulation (q-RT-PCR) (human Gli-1): no modulation

CC1=C2C[C@H]3[C@@H](CC=C4C[C@@H](O)CC[C@@]43C)[C@@H]2CC[C@@]2(C1)O[C@@H]1C[C@H](C)CN[C@H]1[C@H]2C [Compound 8]
pEC50 (Hedgehog pathway): < 7.00
